# Tests used:
# H460 cells = experiment: Applicant's previous cancer cell proliferation inhibition test; assay type: cell-based; conditions: Homo sapiens, NCI-H460, single drug, applicant's previous test data
# hepatocellular carcinoma = experiment: Phase II clinical trial of AST-3424 conducted in China (CTR20191399); assay type: in vivo, human
# Source text: The clinical trial registration number is CTR20191399.
# • 1. Male or female, aged ≥18 years. • 2. Pathohistologically confirmed advanced HCC that cannot be controlled by surgical resection or local therapy. • 3. Previously received standard systemic therapy, including but not limited to, Sorafenib and/or Oxaliplatin-containing systemic chemotherapy, Lenvatinib, Regorafenib, and/or Nivolumab, experienced disease progression, toxicity intolerance, or refusal to continue treatment with these drugs. • 4. At least one measurable lesion according to RECIST 1.1 criteria. Previously irradiated lesions cannot be considered as measurable lesions unless clear radiographic progression is observed after radiotherapy. • 5. […] Eastern Cooperative Oncology Group (ECOG) performance status score of 0 or 1. • 7. Life expectancy ≥ 12 weeks. • 8. With or without HBV or HCV infection. • a. Subjects with HBV infection must have HBV-DNA level less than 2,000 IU/ml, and receive antiviral therapy with entecavir, tenofovir disoproxil fumarate, or tenofovir alafenamide fumarate according to the national guidelines for the prevention and treatment of chronic hepatitis B. The therapy must be maintained during the study and continue for 6 months after the last dose. • b. Subjects with HCV infection (with detectable HCV-RNA or anti-HCV antibodies) may receive treatment according to medical practice. • 9. Child-Pugh score ≤ 6 points. • 10. No history of hepatic encephalopathy. • 11. Before starting to use the study drug, all toxicities from previous anticancer therapies (except alopecia, fatigue, or peripheral neuropathy) must have recovered to Grade 1 or baseline levels (NCI CTCAE Version 5). • 12. Laboratory tests must meet the following criteria. During 14 days before laboratory tests at screening, indicators cannot be corrected by blood transfusion, hematopoietic stimulating factor or albumin infusion is allowed to meet the inclusion criteria. • a. Hemoglobin ≥ 90 g/L; • b. Platelet count ≥ 80 × 10^9/L; • c. Absolute neutrophil count (ANC) ≥ 1.5 × 10^9/L; • d. Serum total bilirubin ≤ 3 mg/dL; • e. ALT and AST ≤ 5.0 × ULN; • f. International normalized ratio (INR) ≤ 2.3 or prothrombin time prolongation ≤ 6 seconds; • g. Albumin ≥ 29 g/L; • h. Creatinine clearance > 50 mL/min as measured according to the Cockcroft-Gault equation. • 13. No history of alcohol abuse, drug addiction or substance abuse within the past year. • 14. Fertile female patients must be in non-lactating and have a negative pregnancy test result within 5 days before the initiation of treatment (positive urine pregnancy test result needs to be confirmed by a serum pregnancy test). • 15. Fertile female and male subjects must agree to use effective contraceptive measures (e.g. surgical sterilization or condom or diaphragm contraceptive measures combined with spermicidal gel or intrauterine contraceptive device [IUD], etc.) with their partners from the start of study participation until 6 months after the last dose. • 16. Voluntary participation in this study, fully understanding of relevant risks, good compliance, and signing the informed consent form. Subjects may also sign a consent form for future biomedical research (FBR). However, subjects who would not participate in FBR may still participate in the main trial.
# • 1. Untreated active central nervous system (CNS) metastases or leptomeningeal disease. Subjects with adequately treated CNS metastases may participate if they are confirmed to be stable for at least 4 weeks by clinical examination and brain imaging (MRI or CT) during screening. • 2. History of other malignant tumors within 2 years, except for adequately treated basal cell carcinoma, carcinoma in situ at other sites, or other tumors of which the natural medical history and the treatment will not interfere with the safety or efficacy assessment of the current study. • 3. Major surgery (other than diagnostic surgery) performed within 4 weeks prior to the first dose. • 4. […]
# [1] = 6 cases positive (+) for BRCA gene mutation, as of March 11, 2024
# [2] = 8 cases negative (-) for BRCA gene mutation, as of March 11, 2024
# [3] = 8 cases positive (+) for p53 gene mutation which may affect protein expression (MUT), as of March 11, 2024
# [4] = 9 cases negative (-) for p53 gene mutation (WT), as of March 11, 2024
# [5] = 18 liver cancer subjects who completed the clinical efficacy evaluation
# [6] = 30 enrolled subjects, as of March 11, 2024
# [7] = subgroup of 5 cases negative (-) for BRCA gene mutation, Table 4 data
# [8] = subgroup of 5 cases negative (-) for p53 gene mutation or deficiency, Table 4 data
# [9] = subgroup of 5 cases positive (+) for BRCA gene mutation, Table 4 data
# [10] = subgroup of 5 cases positive (+) for p53 gene mutation or deficiency, Table 4 data
structure (smiles),measurement,setting,value
C[C@H](OP(=O)(N1CC1)N1CC1)c1ccc([N+](=O)[O-])c(Oc2cccc(C(=O)N(C)C)c2)c1 [AST-3424],IC50,H460 cells,0.47 nM
same,DCR,hepatocellular carcinoma; [1],66.7%
same,ORR,hepatocellular carcinoma; [1],16.7%
same,longest OS,hepatocellular carcinoma; [1],more than 13.8 months
same,longest PFS,hepatocellular carcinoma; [1],more than 11.5 months
same,mean OS,hepatocellular carcinoma; [1],more than 9.5 months
same,mean PFS,hepatocellular carcinoma; [1],4.5 months
same,DCR,hepatocellular carcinoma; [2],50%
same,ORR,hepatocellular carcinoma; [2],0%
same,longest OS,hepatocellular carcinoma; [2],more than 17.6 months
same,longest PFS,hepatocellular carcinoma; [2],2.9 months
same,mean OS,hepatocellular carcinoma; [2],more than 9.4 months
same,mean PFS,hepatocellular carcinoma; [2],1.9 months
same,DCR,hepatocellular carcinoma; [3],25%
same,ORR,hepatocellular carcinoma; [3],0%
same,longest OS,hepatocellular carcinoma; [3],> 14.0 months
same,longest PFS,hepatocellular carcinoma; [3],1.6 months
same,mean OS,hepatocellular carcinoma; [3],more than 9.3 months
same,mean PFS,hepatocellular carcinoma; [3],1.4 months
same,DCR,hepatocellular carcinoma; [4],77.8%
same,ORR,hepatocellular carcinoma; [4],22.2%
same,longest OS,hepatocellular carcinoma; [4],> 13.8 months
same,longest PFS,hepatocellular carcinoma; [4],more than 11.5 months
same,mean OS,hepatocellular carcinoma; [4],more than 7.7 months
same,mean PFS,hepatocellular carcinoma; [4],more than 4.1 months
same,DCR,hepatocellular carcinoma; [5],61.1%
same,ORR,hepatocellular carcinoma; [5],5.6%
same,longest OS,hepatocellular carcinoma; [6],> 17.6 months
same,longest PFS,hepatocellular carcinoma; [6],> 11.5 months
same,DCR,hepatocellular carcinoma; [7],60%
same,ORR,hepatocellular carcinoma; [7],0%
same,mean PFS,hepatocellular carcinoma; [7],1.976 months
same,DCR,hepatocellular carcinoma; [8],80%
same,ORR,hepatocellular carcinoma; [8],20%
same,mean PFS,hepatocellular carcinoma; [8],4.1 months
same,DCR,hepatocellular carcinoma; [9],80%
same,ORR,hepatocellular carcinoma; [9],20%
same,mean PFS,hepatocellular carcinoma; [9],3.82 months
same,DCR,hepatocellular carcinoma; [10],60%
same,ORR,hepatocellular carcinoma; [10],0%
same,mean PFS,hepatocellular carcinoma; [10],1.756 months
